Here are results for one compound from US8629177B2, “Nanoencapsulated delta-9-tetrahydrocannabinol” (Aphios Corporation, priority 2010, dated 2014).

The subject of one data set is Fischer rats. The note with it: cited from earlier work.
The nature of data set [1]: 6-week stability of nanoencapsulated and naked Δ9-THC at 4, 25 and 40° C. The note with it: 4° C., 25° C. and 40° C. The class given is physicochemical. On the procedure:
(§1) Stability Studies: Shelf stability studies were conducted with Δ9-THC, Δ9-THC polymer nanospheres and formulations of the aforementioned. The following tests were performed: (i) physical appearance; and (ii) Δ9-THC content and integrity. Statistical analysis of the data sets were performed using SYSTAT®.
Stability studies were conducted on polymer nanoencapsulated Δ9-THC (THC-12-1) and naked Δ9-THC samples over a 6-week period at 4° C., 25° C. and 40° C.

Data set [2] is described as follows: Stability of Δ9-THC in collection buffer compositions and at different pH. The class given is physicochemical. The method, then: as §1
The composition of the buffer was determined from stability studies with Δ9-THC at different conditions. […] Stability experiments were also conducted with Δ9-THC at pH=4, 7 and 10. […] Experiments were also used to determine that a low concentration of PVA was adequate for […] and minimizing foaming in the collection buffer. The buffer was deareated to remove dissolved oxygen since Δ9-THC is very sensitive to oxygen. A 10% sucrose buffer was utilized based on prior experimental data for this and other projects to preserve particle integrity after lyophilization. Prior to lyophilization, these products were placed in a −80° C. freezer until they were frozen solid. Samples were then lyophilized for a 24 hour period. These samples were reconstituted in distilled, degasified water and were analyzed using HPLC and particle size analysis via dynamic light scattering. After lyophilization, particle sizes of THC-19 and THC-21 were reduced to 287 and 230 nm respectively, and the recovery efficiencies were 77% and 95% respectively.

SMILES strings stand for the structures. Where two headings read alike, the source gives them in different places.

What is called LD50 is the dose expected to kill half of the subjects tested.

As to `CCCCCc1cc(O)c2c(c1)OC(C)(C)[C@@H]1CCC(C)=C[C@@H]21` [Δ9-THC, delta-9-tetrahydrocannabinol], the LD50 in the data set with Fischer rats (females, orally, sesame oil vehicle) is given as 730 mg/kg; in the data set on Fischer rats (males, females, i.v.), 40 mg/kg; in the data set on Fischer rats (males, females, inhalation) it was 105.7 mg/kg; with Fischer rats (males, orally, sesame oil vehicle) it was 1,270 mg/kg; with Fischer rats (males, orally, sesame oil, 1% polysorbate 80, saline emulsion), 800 mg/kg. Moreover, the “LD50 corrected for particulate losses and pulmonary adsorption” value with Fischer rats (males, females, inhalation, corrected) is on record as 42 mg/kg. Moreover, the degradation by temperature entry in data set [1] (6-week period) is given as “degrades almost equally at each temperature”. The “degradation after 6 weeks” value in data set [1] (after 6 weeks) is reported as “most of the Δ9-THC is degraded”. Also, in data set [2] (pH 4, 7, 10 compared), the “stability at pH=4, 7 and 10” value was “most stable at pH=4”. The “stability in 10% sucrose/0.1% PVA solution with 40% ethanol” value in data set [2] (six day study, 40% ethanol) is reported as “stable if 40% ethanol is introduced”. In data set [2] (six day study, PVA-sucrose solution without sufficient ethanol (0%, 20%, 30%)), the “stability in 10% sucrose/0.1% PVA solution” value is on record as “degrades in the PVA-sucrose solution”.
